Laboratory results: patent US20250215032A1, “PHOSPHORYLPURINONE COMPOUNDS FOR THE TREATMENT OF CANCER” (Hoffmann-La Roche Inc., priority 2022, published 2025)
In brackets after ≈: the same amount, converted by molar mass.

Legend:
[1] = biological target: T1, human TLR7 (Homo sapiens, UniProt Q9NYK1); assay: HEK293-Blue-hTLR7 cells assay (SEAP reporter, NF-κB activation)
T1 sequence (Q9NYK1 27-1049): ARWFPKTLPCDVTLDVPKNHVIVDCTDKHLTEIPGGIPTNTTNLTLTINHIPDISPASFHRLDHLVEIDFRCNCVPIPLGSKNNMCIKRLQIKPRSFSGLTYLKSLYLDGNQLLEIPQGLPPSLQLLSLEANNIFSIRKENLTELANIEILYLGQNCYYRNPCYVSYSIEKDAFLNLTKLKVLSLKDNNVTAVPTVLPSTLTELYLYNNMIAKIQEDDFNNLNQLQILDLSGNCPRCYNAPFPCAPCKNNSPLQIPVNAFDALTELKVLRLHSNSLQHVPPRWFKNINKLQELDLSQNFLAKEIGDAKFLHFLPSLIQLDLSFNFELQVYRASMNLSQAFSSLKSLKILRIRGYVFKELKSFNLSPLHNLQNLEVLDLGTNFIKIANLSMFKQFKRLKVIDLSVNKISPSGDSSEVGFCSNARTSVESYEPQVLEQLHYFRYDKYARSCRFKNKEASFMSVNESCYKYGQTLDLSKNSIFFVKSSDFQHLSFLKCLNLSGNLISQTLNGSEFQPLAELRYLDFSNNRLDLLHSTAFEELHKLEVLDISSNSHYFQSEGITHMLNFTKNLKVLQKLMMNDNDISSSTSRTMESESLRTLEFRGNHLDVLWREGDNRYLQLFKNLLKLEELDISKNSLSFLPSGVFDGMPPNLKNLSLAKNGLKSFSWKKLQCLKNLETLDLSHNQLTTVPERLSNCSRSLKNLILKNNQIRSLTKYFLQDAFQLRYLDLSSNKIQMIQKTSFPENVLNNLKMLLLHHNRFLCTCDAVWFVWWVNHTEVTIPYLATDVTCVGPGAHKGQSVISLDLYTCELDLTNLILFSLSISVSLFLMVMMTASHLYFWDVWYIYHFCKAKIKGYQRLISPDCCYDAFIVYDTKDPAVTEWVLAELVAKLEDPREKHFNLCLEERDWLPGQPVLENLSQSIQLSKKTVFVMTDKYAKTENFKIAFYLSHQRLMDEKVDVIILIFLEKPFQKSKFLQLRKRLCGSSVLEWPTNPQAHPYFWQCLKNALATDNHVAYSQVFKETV
Source text: A stable HEK293-Blue-h TLR7 cell line was purchased from InvivoGen (Cat. #: hkb-htlr7, San Diego, California, USA). These cells were designed for studying the stimulation of human TLR7 by monitoring the activation of NF-κB. A SEAP (secreted embryonic alkaline phosphatase) reporter gene was placed under the control of the IFN-β minimal promoter fused to five NF-κB and AP-1-binding sites. The SEAP was induced by activating NF-κB and AP-1 via stimulating HEK-Blue hTLR7 cells with TLR7 ligands. Therefore the reporter expression was regulated by the NF-κB promoter upon stimulation of human TLR7 for 20 hrs. The cell culture supernatant SEAP reporter activity was determined using QUANTI-Blue™ kit (Cat. #: rep-qb1, Invivogen, San Diego, Ca, USA) at a wavelength of 640 nm, a detection medium that turns purple or blue in the presence of alkaline phosphatase.
HEK293-Blue-hTLR7 cells were incubated at a density of 250,000˜450,000 cells/mL in a volume of 180 μL in a 96-well plate in Dulbecco's Modified Eagle's medium (DMEM) containing 4.5 g/L glucose, 50 U/mL penicillin, 50 mg/mL streptomycin, 100 mg/mL Normocin, 2 mM L-glutamine, 10% (V/V) heat-inactivated fetal bovine serum for 24 hrs. Then the HEK293-Blue-hTLR7 cells were incubated with addition of 20 μL test compound in a serial dilution in the presence of final DMSO at 1% and perform incubation under 37° C. in a CO2 incubator for 20 hrs.

[2] = Lyophilisation solubility assay (LYSA), kinetic solubility; assay type: physicochemical; conditions: aqueous buffer; 0.05 M phosphate buffer (pH 6.5), from 10 mM DMSO stock after evaporation
Source text: The solubility of a substance can be broadly defined as the maximum amount of the substance that dissolves in a specified volume of solvent. However, it is important to understand that the solubility of a compound can vary drastically depending on the condition of the solvent (e.g. temperature and pH) and the physiochemical properties of the compound (e.g. ionisation and crystallinity). These critical factors need to be considered during solubility determination in order to generate high quality solubility data that will be useful in the progression of compounds through the discovery and development stages. The kinetic solubility of a compound is the maximum solubility of the fastest precipitating species of the compound; this is often measured using a stock solution of the compound dissolved in an organic solvent, typically dimethyl sulfoxide (DMSO), as the starting material. […] The precipitate formed, which is rarely determined during the assessment, could be any combination of various possible solid states of the compound. Given the level of supersaturation that could occur when an organic solvent is diluted in water, kinetic solubility values are typically higher than the corresponding thermodynamic (equilibrium) solubility values. Solubility assays in the early discovery process often determine kinetic solubility. The lyophilisation solubility assay (LYSA) is a high throughput kinetic solubility assay for the early drug discovery process.
Samples were prepared in duplicate from 10 mM DMSO stock solution. After evaporation of DMSO with a centrifugal vacuum evaporator, the compounds were solved in 0.05 M phosphate buffer (pH 6.5), stirred for one hour and shaken for two hours. After one night, the solutions were filtered using a microtiter filter plate. Then the filtrate and its 1/10 dilution were analyzed by HPLC-UV. […] The results were in μg/mL. […] It should be noted that metastable solid phases may form during the evaporation step, and the method might therefore produce higher solubility values than assays using the stable polymorph as the starting material.

[3] = Thermodynamic solubility assay (THESA), equilibrium solubility; assay type: physicochemical; conditions: 22 °C, aqueous buffer, thermodynamic from solid; 50 mM phosphate buffer (pH 6.5), room temperature (22±2° C.)
Experimental: The thermodynamic (equilibrium) solubility is the saturation solubility of a compound at the end of the dissolution process, where the dissolved compound is in equilibrium with the undissolved material in excess. The thermodynamic solubility is determined by dispensing a solid compound into a solvent. This is often deemed as the true solubility of the compound and is a critical piece of information in formulation development. The thermodynamic solubility assay (THESA) is a widely used tool for the measurement of equilibrium solubility for the later drug discovery process and is considered as a gold standard solubility assay.
Approximately 1-2 mg of each compound was added into 300 μL of 50 mM phosphate buffer (pH 6.5) at room temperature (22±2° C.). Each sample is placed in a microanalysis tube, which was sonicated for 1 h and shaken for 2 h. All suspensions were left overnight (about 16 h). On the next day, the samples were filtered into a V-bottom plate with a micronic filterplate to separate the solid material from the solution. Then, all solutions were diluted into 96 well V-bottom microplates and analyzed by UPLC-UV. The calibration line was established by UPLC using 5 different dilutions of the compound in a DMSO stock solution, made in micronic tubes (concentration approximately 1 mg/mL). Dilutions took place with DMSO. From this regression equation the solubility of the compound was determined. In cases where the drug was completely dissolved in the buffer, the value for equilibrium solubility was assumed to be higher than the value determined by UPLC and reported as such.

Row | EC50 [1] [nM] | solubility kinetic [2] [µg/mL] | solubility thermodynamic [3] [µg/mL] | Structure (SMILES)
1 | 24 | > 650 |  | CN1CCOC2(CCN(c3ccc(Cn4c(=O)[nH]c5c(N)nc(P(C)(C)=O)nc54)cn3)CC2)C1 [Example 10, 6-amino-2-dimethylphosphoryl-9-[[6-(4-methyl-1-oxa-4,9-diazaspiro[5.5]undecan-9-yl)-3-pyridyl]methyl]-7H-purin-8-one]
2 | 45 | > 540 |  | CC[P@@](C)(=O)c1nc(N)c2[nH]c(=O)n(Cc3ccc(NCCNC)nc3)c2n1 [Example 17, 6-amino-2-[(R)-ethyl(methyl)phosphoryl]-9-[[6-[2-(methylamino)ethylamino]-3-pyridyl]methyl]-7H-purin-8-one]
3 | 9 | > 580 | 2370 (≈ 5.47 mM) | CCP(=O)(CC)c1nc(N)c2[nH]c(=O)n(Cc3ccc(NCCN(C)C)nc3)c2n1 [Example 19, 6-amino-2-diethylphosphoryl-9-[[6-[2-(dimethylamino)ethylamino]-3-pyridyl]methyl]-7H-purin-8-one]
4 | 12 | > 570 |  | CP(C)(=O)c1nc(N)c2[nH]c(=O)n(Cc3ccc(N4CC5CCC4CN5)nc3)c2n1 (stereo not shown) [Example 5, 6-amino-9-[[6-(2,5-diazabicyclo[2.2.2]octan-2-yl)-3-pyridyl]methyl]-2-dimethylphosphoryl-7H-purin-8-one]
5 |  | 170 |  | CC[P@](C)(=O)c1nc(N)c2[nH]c(=O)n(Cc3ccc(N4CCN(S(C)(=O)=O)CC4)nc3)c2n1 [Example 14-B, 6-amino-2-[(S)-ethyl(methyl)phosphoryl]-9-[[6-(4-methylsulfonylpiperazin-1-yl)-3-pyridyl]methyl]-7H-purin-8-one]
6 |  | 150 |  | CC[P@@](C)(=O)c1nc(N)c2[nH]c(=O)n(Cc3ccc(N4CCN(S(C)(=O)=O)CC4)nc3)c2n1 [Example 14-A, 6-amino-2-[(R)-ethyl(methyl)phosphoryl]-9-[[6-(4-methylsulfonylpiperazin-1-yl)-3-pyridyl]methyl]-7H-purin-8-one]
7 | 21 | > 650 |  | CN(C)CC1CCN(c2ccc(Cn3c(=O)[nH]c4c(N)nc(P(C)(C)=O)nc43)cn2)C1 (stereo not shown) [Example 9, 6-amino-9-[[6-[3-[(dimethylamino)methyl]pyrrolidin-1-yl]-3-pyridyl]methyl]-2-dimethylphosphoryl-7H-purin-8-one]
8 | 38 | > 540 |  | CP(C)(=O)c1nc(N)c2[nH]c(=O)n(Cc3ccc(NCCN4CCCC4)nc3)c2n1 [Example 7, 6-amino-2-dimethylphosphoryl-9-[[6-(2-pyrrolidin-1-ylethylamino)-3-pyridyl]methyl]-7H-purin-8-one]
9 | 84 | > 560 |  | CCN(C)CCNc1ccc(Cn2c(=O)[nH]c3c(N)nc(P(C)(C)=O)nc32)cn1 [Example 12, 6-amino-2-dimethylphosphoryl-9-[[6-[2-[ethyl(methyl)amino]ethylamino]-3-pyridyl]methyl]-7H-purin-8-one]
10 | 27 | > 630 |  | CP(C)(=O)c1nc(N)c2[nH]c(=O)n(Cc3ccc(N4CC5CNCC5C4)nc3)c2n1 (stereo not shown) [Example 6, 9-[[6-(2,3,3a,4,6,6a-hexahydro-1H-pyrrolo[3,4-c]pyrrol-5-yl)-3-pyridyl]methyl]-6-amino-2-dimethylphosphoryl-7H-purin-8-one]
11 | 28 | > 620 |  | CN1CCC(Nc2ccc(Cn3c(=O)[nH]c4c(N)nc(P(C)(C)=O)nc43)cn2)C1 (stereo not shown) [Example 11, 6-amino-2-dimethylphosphoryl-9-[[6-[(1-methylpyrrolidin-3-yl)amino]-3-pyridyl]methyl]-7H-purin-8-one]
12 | 28 | > 600 |  | CP(C)(=O)c1nc(N)c2[nH]c(=O)n(Cc3ccc(N4CCC(N)C4)nc3)c2n1 (stereo not shown) [Example 3, 6-amino-9-[[6-(3-aminopyrrolidin-1-yl)-3-pyridyl]methyl]-2-dimethylphosphoryl-7H-purin-8-one]
13 |  | > 530 |  | CC[P@](C)(=O)c1nc(N)c2[nH]c(=O)n(Cc3ccc(N4CCN(C)CC4)nc3)c2n1 [Example 13-B, 6-amino-2-[(S)-ethyl(methyl)phosphoryl]-9-[[6-(4-methylpiperazin-1-yl)-3-pyridyl]methyl]-7H-purin-8-one]
14 | 39 | > 520 |  | CP(C)(=O)c1nc(N)c2[nH]c(=O)n(Cc3ccc(NC4CCOCC4)nc3)c2n1 [Example 8, 6-amino-2-dimethylphosphoryl-9-[[6-(tetrahydropyran-4-ylamino)-3-pyridyl]methyl]-7H-purin-8-one]
15 | 10 | > 640 |  | CC1(C)CN(c2ccc(Cn3c(=O)[nH]c4c(N)nc(P(C)(C)=O)nc43)cn2)CCN1 [Example 4, 6-amino-2-dimethylphosphoryl-9-[[6-(3,3-dimethylpiperazin-1-yl)-3-pyridyl]methyl]-7H-purin-8-one]
